In article PMC5840146, “Structure-Activity Relationship Analysis of 3-Phenylcoumarin-Based Monoamine Oxidase B Inhibitors” (Frontiers in Chemistry, 2018):
“And” between values parts separate entries of the source, which are not always exact repeats. Identical values can stand only once. Like-named read-outs stand apart in the source and are kept apart here.

What was measured:
Format in all cases: biochemical
recombinant human HSD1 = target: T1, recombinant human HSD1 (Homo sapiens, UniProt P14061); test: HSD1 inhibition by HPLC with tritium labeled estrone/estradiol; details: for HSD1 inhibition % / inhibition at 1 µM: 1 μM
T1 construct: made in house; host or cells: Sf9 insect cells
T1 sequence (P14061 1-328): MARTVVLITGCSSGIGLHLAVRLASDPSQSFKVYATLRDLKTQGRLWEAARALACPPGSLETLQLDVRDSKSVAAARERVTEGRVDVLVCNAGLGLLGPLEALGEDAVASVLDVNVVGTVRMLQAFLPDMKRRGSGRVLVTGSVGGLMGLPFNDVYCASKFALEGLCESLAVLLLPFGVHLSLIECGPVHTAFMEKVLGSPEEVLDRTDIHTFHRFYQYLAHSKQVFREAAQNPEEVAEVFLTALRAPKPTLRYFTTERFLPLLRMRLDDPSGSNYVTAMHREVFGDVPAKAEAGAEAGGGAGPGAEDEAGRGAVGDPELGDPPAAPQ

MAO-B = target: T2, MAO-B (Homo sapiens, UniProt P27338); test: continuous spectrophotometric MAO-B inhibition assay; details: for MAO-B inhibition %: 10 µM, 2h; for LiPE: LiPE = pIC50 - QPlogPo/w, new analogs and pargyline; for IC50: duplicates
T2 construct: purchased Sigma-Aldrich
T2 sequence (P27338 1-520): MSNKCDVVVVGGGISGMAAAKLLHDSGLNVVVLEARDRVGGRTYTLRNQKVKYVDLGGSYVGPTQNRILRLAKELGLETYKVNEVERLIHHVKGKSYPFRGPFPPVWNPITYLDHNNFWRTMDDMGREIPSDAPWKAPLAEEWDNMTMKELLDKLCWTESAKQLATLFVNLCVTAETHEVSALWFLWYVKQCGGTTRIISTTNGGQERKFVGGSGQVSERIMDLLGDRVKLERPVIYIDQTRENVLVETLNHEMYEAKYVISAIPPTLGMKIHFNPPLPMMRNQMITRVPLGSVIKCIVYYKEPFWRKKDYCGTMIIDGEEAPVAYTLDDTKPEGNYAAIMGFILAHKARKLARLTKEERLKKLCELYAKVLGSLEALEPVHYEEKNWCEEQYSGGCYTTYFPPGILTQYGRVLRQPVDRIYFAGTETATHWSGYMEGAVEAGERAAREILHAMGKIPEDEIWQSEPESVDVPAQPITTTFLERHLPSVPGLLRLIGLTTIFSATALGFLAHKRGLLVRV
Method: (§1) Both monoamine oxidase A (MAO-A) and B (MAO-B) protein and the reagents for the chromogenic solution of vanillic acid (4-hydroxy-3-methoxylbenzoic acid, 97% purity), 4-aminoantipyrine (reagent grade), horseradish peroxidase and the substrate tyramine hydrochloride (minimum 99% purity) as well as the potassium phosphate buffer, which was prepared using potassium phosphate dibasic trihydrate (≥99% ReagentPlus™) and potassium phosphate monobasic (minimum 98% purity, molecular biology tested), were purchased from Sigma-Aldrich (St. Louis, MO, USA) for the spectrophotometric assay.
(§2) The protocol for continuous spectrophotometric assay (Holt et al., [1997]) was followed in the activity measurements. The assay was performed in 0.2 M potassium phosphate buffer pH 7.6 on 96-well plates (Nunc™ 96F microwell plate without a lid, Nunc A/S, Roskilde, DK) in 200 μl total volume. The chromogenic solution containing 1 mM vanillic acid, 500 μM 4-aminoantipyrine and 8 U/ml horseradish peroxidase in 0.2 M potassium phosphate buffer pH 7.6 was mixed anew for each measurement. 5 mM tyramine solution was used as the substrate. In order to determine the activity of both MAO-B and MAO-A, concentration series as duplicates were prepared. The protein was combined with the chromogenic solution and incubated 30 min at 37°C. The background signal was measured using multilabel reader (Victor^TM X4, 2030 Multilabel Reader, PerkinElmer, Waltham, MA, USA) at A490 before reaching the total 200 μl volume by adding 20 μl of tyramine to final concentration of 0.5 mM on the plate. As a result, the final concentration of the chromogenic solution on the plate was 250 μM vanillic acid, 125 μM 4-aminoantipyrine and 2 U/ml horseradish peroxide. After adding the substrate, the plates were measured 300 times every 15 s using 1 s exposure time. The device was set to 37°C for the duration of the experiment.
(§3) The experiment conditions should produce absorbance change of ~0.35 (Holt et al., [1997]). […] The same wide panel of coumarin derivatives was additionally used to analyze the MAO-A inhibition at 100 μM (Table 1, Supplementary Table S1).
(§4) The measured data was then fitted on a curve using non-linear regression with the equation for log[inhibitor] vs. response. The IC50 values were therefore determined based on the curve fit. The fitted curves are shown on –log scale in Supplementary Figures S1, S2.

human CYP1A2 = target: T3, human CYP1A2 (Homo sapiens, UniProt P05177); test: CYP1A2 inhibition, 7-ethoxyresorufin fluorescence assay
T3 construct: purchased Corning Inc
T3 sequence (P05177 1-516): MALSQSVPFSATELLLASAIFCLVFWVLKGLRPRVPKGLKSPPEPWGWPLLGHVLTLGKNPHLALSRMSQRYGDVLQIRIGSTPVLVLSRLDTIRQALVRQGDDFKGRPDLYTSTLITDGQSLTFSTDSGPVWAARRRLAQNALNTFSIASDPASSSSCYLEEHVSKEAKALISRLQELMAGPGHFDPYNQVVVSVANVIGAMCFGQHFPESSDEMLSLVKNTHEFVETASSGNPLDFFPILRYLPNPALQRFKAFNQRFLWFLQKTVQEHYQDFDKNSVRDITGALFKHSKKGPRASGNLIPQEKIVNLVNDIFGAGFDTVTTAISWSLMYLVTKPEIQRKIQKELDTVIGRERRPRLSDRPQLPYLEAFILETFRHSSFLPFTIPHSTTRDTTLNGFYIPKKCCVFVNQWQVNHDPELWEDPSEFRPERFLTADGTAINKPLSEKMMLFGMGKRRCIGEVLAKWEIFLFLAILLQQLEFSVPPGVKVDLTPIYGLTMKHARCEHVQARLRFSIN
Method: Inhibition of CYP1A2 activity was determined with commercial heterologously expressed human CYP1A2 enzyme (Corning Inc., Corning, NY, USA) as described earlier (Korhonen et al., [2005]). The metabolic activity was not in the scope of this particular study. The assay was adapted to the 96-well plate format. In each well, a 150 μL incubation volume contained 100 mM Tris-HCl buffer (pH 7.4), 4.2 mM MgCl2,1 μM 7-ethoxyresorufin, 0.5 pmol of cDNA expressed CYP1A2, […] inhibitor, and a NADPH-generating system. All inhibitors were dissolved in ethanol, and the final concentration of ethanol was 2% in all incubations. The reaction was initiated by adding the NADPH-regenerating system after a 10 min preincubation at 37°C, and after a 20 min incubation, the reaction was terminated by the addition of 110 μL of 80% acetonitrile/20% 0.5 M Tris base. The formed fluorescence was measured with a Victor2 plate counter (Perkin-Elmer Life Sciences Wallac, Turku, Finland) at 570 nm excitation and 616 nm emission.

MAO-A = target: T4, MAO-A (Homo sapiens, UniProt P21397); test: continuous spectrophotometric MAO-A inhibition assay; details: for MAO-A inhibition %: 100 µM, 1h
T4 construct: purchased Sigma-Aldrich
T4 sequence (P21397 1-527): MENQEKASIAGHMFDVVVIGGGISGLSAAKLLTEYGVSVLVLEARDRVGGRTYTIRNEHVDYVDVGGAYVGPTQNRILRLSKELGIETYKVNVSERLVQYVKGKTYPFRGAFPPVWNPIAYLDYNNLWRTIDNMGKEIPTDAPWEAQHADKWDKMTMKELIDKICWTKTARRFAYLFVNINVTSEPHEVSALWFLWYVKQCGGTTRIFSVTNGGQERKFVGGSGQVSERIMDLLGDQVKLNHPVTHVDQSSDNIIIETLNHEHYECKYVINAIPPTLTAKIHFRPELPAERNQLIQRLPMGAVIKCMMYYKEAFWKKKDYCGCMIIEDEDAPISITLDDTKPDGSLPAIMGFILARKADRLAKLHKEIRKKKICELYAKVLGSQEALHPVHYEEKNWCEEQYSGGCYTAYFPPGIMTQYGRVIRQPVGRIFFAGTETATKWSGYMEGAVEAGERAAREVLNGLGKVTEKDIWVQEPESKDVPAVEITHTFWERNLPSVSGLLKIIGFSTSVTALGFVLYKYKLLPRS
Method: as §1, §2, §3, §4

[1] = dilution series 50 μM to 1 nM, read-out: MAO-B inhibition IC50

## O=c1oc2c(CN3CCCCC3)c(O)ccc2cc1-c1ccccc1 [derivative 50]
Recombinant human HSD1
  HSD1 inhibition %: 1.50%
MAO-B
  MAO-B inhibition (in words): activity is lost
  MAO-B inhibition %: 8.16%
Human CYP1A2
  IC50: 65 µM
MAO-A
  MAO-A inhibition %: 0.00%

## COc1ccc2cc(-c3ccc(OC(C)=O)c(F)c3)c(=O)oc2c1 [derivative 6, 2-fluoro-4-(7-methoxy-2-oxo-2H-chromen-3-yl)phenyl acetate]
Recombinant human HSD1
  inhibition at 1 µM: 21%
MAO-B
  inhibition at 10 µM: 99.9%
  LiPE: 4.25
MAO-B; [1]
  IC50: ~0.189 µM and 0.189 µM
MAO-A; 100 μM
  inhibition at 100 µM: 0%

## COc1ccc(-c2cc3cccc(OC(C)=O)c3oc2=O)cc1 [derivative 35]
Recombinant human HSD1
  HSD1 inhibition %: 0.00%
MAO-B
  MAO-B inhibition %: 42.37%
Human CYP1A2
  IC50: 26 µM
MAO-A
  MAO-A inhibition %: 4.08%

## C#CCN(C)Cc1ccccc1 [pargyline, reference compound]
MAO-B
  inhibition at 10 µM: 102%

## CC(=O)Oc1ccc2cc(-c3ccc(OC(F)(F)F)cc3)c(=O)oc2c1 [derivative 3, 2-oxo-3-(4-(trifluoromethoxy)phenyl)-2H-chromen-7-yl acetate]
Recombinant human HSD1
  inhibition at 1 µM: 0%
MAO-B
  inhibition at 10 µM: 100%
  LiPE: 3.52
MAO-B; [1]
  IC50: ~0.141 µM and 0.141 µM
Human CYP1A2
  IC50: 280 µM
MAO-A; 100 μM
  inhibition at 100 µM: 22%

## COc1ccc2cc(-c3cccc(OCc4ccccc4)c3)c(=O)oc2c1 [derivative 51]
Recombinant human HSD1
  HSD1 inhibition %: 31.60%
MAO-B
  MAO-B inhibition %: 6.66%
Human CYP1A2
  IC50: 3 µM
MAO-A
  MAO-A inhibition %: 0.00%

## CC(=O)Oc1cccc2cc(-c3ccc(N(C)C)cc3)c(=O)oc12 [derivative 26]
Recombinant human HSD1
  HSD1 inhibition %: 0.00%
MAO-B
  MAO-B inhibition %: 66.79%
Human CYP1A2
  IC50: 7 µM
MAO-A
  MAO-A inhibition %: 0.00%

## COc1ccc(-c2cc3cc(Cl)cc(Cl)c3oc2=O)cc1 [derivative 32]
MAO-B
  MAO-B inhibition %: 47.77%
Human CYP1A2
  IC50: 800 µM
MAO-A
  MAO-A inhibition %: 0.00%

## COc1ccc2oc(=O)c(-c3ccc(OC(F)(F)F)cc3)cc2c1 [derivative 4, 6-methoxy-3-(4-(trifluoromethoxy)phenyl)-2H-chromen-2-one]
Recombinant human HSD1
  inhibition at 1 µM: 0%
MAO-B
  inhibition at 10 µM: 102%
  LiPE: 2.28
MAO-B; [1]
  IC50: 0.317 µM
Human CYP1A2
  IC50: 7 µM
MAO-A; 100 μM
  inhibition at 100 µM: 0%

## COc1ccc(-c2cc3cc(OC)ccc3oc2=O)cc1 [derivative 10, 6-methoxy-3-(4-methoxyphenyl)-2H-chromen-2-one]
Recombinant human HSD1
  inhibition at 1 µM: 0%
MAO-B
  inhibition at 10 µM: 97.6%
  LiPE: 3.25
MAO-B; [1]
  IC50: 0.4 µM
Human CYP1A2
  IC50: 15 µM
MAO-A; 100 μM
  inhibition at 100 µM: 10.1%

## CC(=O)Oc1ccc2cc(-c3ccc(N(C)C)cc3)c(=O)oc2c1 [derivative 19, 3-(4-(dimethylamino)phenyl)-2-oxo-2H-chromen-7-yl acetate]
Recombinant human HSD1
  inhibition at 1 µM: 15%
MAO-B
  inhibition at 10 µM: 85.4%
  LiPE: 3.27
MAO-B; [1]
  IC50: 0.866 µM
Human CYP1A2
  IC50: 370 µM
MAO-A; 100 μM
  inhibition at 100 µM: 0%

## CN(C)c1ccc(-c2cc3ccc(O)cc3oc2=O)cc1 [derivative 17, 3-(4-(dimethylamino)phenyl)-7-hydroxy-2H-chromen-2-one]
Recombinant human HSD1
  inhibition at 1 µM: 5%
MAO-B
  inhibition at 10 µM: 90.1%
  LiPE: 3.62
MAO-B; [1]
  IC50: 0.384 µM
Human CYP1A2
  IC50: 35 µM
MAO-A; 100 μM
  inhibition at 100 µM: 4.74%

## COc1ccc(-c2cc3ccc(OC(C)=O)cc3oc2=O)cc1 [derivative 13, 3-(4-methoxyphenyl)-2-oxo-2H-chromen-7-yl acetate]
Recombinant human HSD1
  inhibition at 1 µM: 0%
MAO-B
  inhibition at 10 µM: 85.9%
  LiPE: 3.30
MAO-B; [1]
  IC50: 1.95 µM
Human CYP1A2
  IC50: 570 µM
MAO-A; 100 μM
  inhibition at 100 µM: 2.48%

## COc1ccc(-c2cc3cc(OC(C)=O)ccc3oc2=O)cc1 [derivative 14, 3-(4-methoxyphenyl)-2-oxo-2H-chromen-6-yl acetate]
Recombinant human HSD1
  inhibition at 1 µM: 1%
MAO-B
  inhibition at 10 µM: 75.8%
  LiPE: 2.73
MAO-B; [1]
  IC50: 8.48 µM
Human CYP1A2
  IC50: 87.5 µM

## COc1ccc(-c2cc3ccc(OC)cc3oc2=O)cc1 [derivative 37]
Recombinant human HSD1
  HSD1 inhibition %: 0.00%
MAO-B
  MAO-B inhibition %: 39.78%
Human CYP1A2
  IC50: 480 µM
MAO-A
  MAO-A inhibition %: 0.00%

## COc1ccc2oc(=O)c(-c3ccc(C(F)(F)F)cc3)cc2c1 [derivative 1, 6-methoxy-3-(4-(trifluoromethyl)phenyl)-2H-chromen-2-one]
Recombinant human HSD1
  HSD1 inhibition (in words): does not inhibit HSD1
  inhibition at 1 µM: 0%
MAO-B
  inhibition at 10 µM: 99.5%
  LiPE: 3.17
MAO-B; MAO-B inhibition IC50, dilution series 50 μM to 1 nM
  IC50: ~0.056 µM and 0.05 to 0.06 µM and 0.056 µM
Human CYP1A2
  IC50: 124 µM
MAO-A; 100 μM
  MAO-A inhibition (in words): does not produce MAO-A inhibition
  inhibition at 100 µM: 0%
